Earlier results as cited in patent publication US10517855B1, “Interleukins activity inhibiting composition” (priority 2019, dated 2019).

Experiments:
[1] = system: haloperidol-induced catalepsy; details: preclinical studies
[2] = system: apomorphine-induced stereotypy; details: preclinical studies
[3] = preclinical studies
[4] = system: MK-801-induced hyperlocomotion, working memory deficit and social withdrawal; details: preclinical studies
[5] = system: amphetamine-induced lethality and stereotypy; details: preclinical studies
avian malaria = details: in vivo

SMILES	haloperidol-induced catalepsy [1]	apomorphine-induced stereotypy [2]	anxiolytic-like effects [3]	MK-801-induced hyperlocomotion [4]	MK-801-induced social withdrawal [4]	MK-801-induced working memory deficit [4]	amphetamine-induced lethality [5]	amphetamine-induced stereotypy [5]	activity against avian malaria (avian malaria)
COC(=O)C1=CO[C@@H](C)[C@@H]2Cn3ccc4c5ccccc5nc-4c3C[C@H]12 [Alstonine]	attenuates	attenuates	possesses anxiolytic-like effects	attenuates	attenuates	attenuates	attenuates	attenuates	
C/C=C1/CN2CC[C@@]34c5cc(O)ccc5N(C)[C@]35OC[C@@]4(C(=O)OC)[C@H]1C[C@H]25 [akuammine]									inactive
